What was measured:
[1] = HPLC analysis of IAA and CA in serum and cerebrospinal fluid (CSF) of mice; assay type: in vivo, mouse
microglia = assay: S100A8 and cleaved caspase-3 in brain microglia of treated mice (qPCR, western blot); assay type: in vivo, mouse
Method: Isolation of microglia, neuron, astrocytes, and oligodendrocytes from the brain. Mice were anaesthetized with a mixture of ketamine (16%) and xylazine (3%) by intraperitoneal injection and then sacrificed under basal conditions by transcardial perfusion with perfusion buffer (Ca^2+/Mg^2+ free HBSS containing 0.5 mM EGTA, 10 mM HEPES and 4.2 mM NaHCO3; pH 7.2). The perfused brain was removed and gently mechanically disaggregated with tweezers in dissociation buffer (HBSS containing 10 mM HEPES and 4.2 mM NaHCO3 supplemented with Type I collagenase (0.05%), Dispase II (25 mg/ml), DNase I (2.5 mg/ml), trypsin inhibitor ([…]); pH 7.5) followed by incubation at 37° C. for 1 hour. The tissue homogenate was centrifuged at 1,350×g for 5 minutes at 4° C. […]
Quantitative Real-Time PCR (qPCR) analysis of mRNA expression. […] For analysis of gene mRNA expression, […] of total RNA was reverse transcribed by SuperScript III reverse transcriptase (Invitrogen) and quantitation was performed using primers (Eurofins) with SSOADVANCED™ Universal SYBR Green Supermix (BioRad); GAPDH was used for normalization. […] Analysis and fold-change were determined using the comparative threshold cycle (Ct) method. […] Setting the expression value of GAPDH to 1.0, the relative expression values were calculated as […]. The change in mRNA expression was calculated as fold-change. […]

[2] = Interaction of S100p1-G and metabolite: streptavidin pull-down from BV2 cells and LC-MS; assay type: cell-based, mouse
Method: Interaction of S100p1-G and metabolite. Microglial BV2 cells (2×10^6) were transfected with biotinylated oligo S100p1-G or mutant using Lipofectamin RNAiMAX Reagent (Thermo Fisher) according to the manufacturer's instructions overnight at 37° C. […] of aged mouse fecal supernatant (from one-gram feces) was added into the cell growth medium. After six hours, the cells were collected in RIPA lysis buffer. […] of cell lysate was incubated with […] of DYNABEADS® Streptavidin beads (Thermo Fisher) at room temperature for 1 h. The bio-oligo complex was eluted with biotin (4 mg/ml)) in 25 mM Tris-HCL containing 0.3 M NaCl (PH 8.5) at 95° C. for 5 minutes. Metabolite analysis was performed with LC-MS.

[3] = Morris water maze (MWM) test; assay type: in vivo, mouse
Method: Morris water maze (MWM) test. Mice were trained in a 122 cm diameter, 50 cm height open-field water maze with non-reflective interior surfaces. The pool water was filled with water maintained at 25±1° C. and mixed with non-toxic white tempera paint. Distinctive and extra-maze cues were marked on the wall at specific locations and were visible to the mice in the maze. Mice were removed from cages, placed into the water from quasi-random start points and allowed a maximum of 60 seconds to probe the escape platform. The inter interval of each trail remained for 15 seconds. For four consecutive days, four trials (training) were recorded each day with a final test on day 5 (FIG. 4A). Performance was evaluated by the mean escape latencies base on every training trial (Vorhees and Williams, 2006).

[4] = Surface plasmon resonance (SPR) of biotin-labeled oligos with IAA; assay type: binding; details: biotin labeled oligo on streptavidin sensor chip
Method: Surface plasmon resonance (SPR). To identify the binding activity of the metabolite IAA and S100A8 promoter sequence, SPR experiments were conducted on an OPENSPR™ (Nicoya, Lifesciences, CA). Experiments were performed on a streptavidin sensor (Nicoya, Lifesciences). SPR was run at a flow rate of 20 μl/min using HBS running buffer (20 mM HEPES, 150 mM NaCl, pH 7.4). First, the streptavidin sensor chip was cleaned with octyl β-D-glucopyranoside (40 mM) and CHAPS (20 mM). 200 μl of biotin-conjugated oligos (1 μg/ml, Table 5) were injected on the sensor chip for 10 minutes until a stable resonance was obtained. After immobilization of bio-oligo, the surface was blocked with BSA (3%) in running buffer. After a stable signal was obtained, IAA (10 nM) was run over the immobilized bio-oligo until a stable resonance was obtained. A negative control test was also performed by injecting IAA onto a blank sensor chip to check for non-specific binding. The sensograms were analyzed using TraceDrawer kinetic analysis software.

[5] = IAA to young mice, phage to aged mice, oral gavage two months

Molecule	pass through the blood-brain barrier (BBB) ([1]; aged mice, serum and CSF, gut-derived metabolite)	IAA level in the serum (HPLC) ([1]; young mice gavage-given IAA, aged mice gavage-given phage^TSD-27)	S100A8 and cleaved caspase-3 in the microglia (microglia; all five major regions of the brain, IAA oral gavage)	metabolite within the Bio-S100p1-G complex (LC-MS) ([2]; cell lysates)	swim speeds in MWM ([3]; IAA (0.5 g/kg) to young mice, phage^TSD-27 (1×10^9 pfu/mouse) to aged mice, oral gavage every other day, two months)	latency time to reach the platform in MWM [3, 5]	memory and learning (normalized test path length, MWM) [3, 5]	IAA in CSF (HPLC) ([1]; aged mice, intravenous oligo, twice a week for 2 months)	expression of S100A8 and cleaved caspase-3 in microglia cells (qPCR, western blot) (microglia; young mice, gavage every other day for 2 months)	interaction with IAA (SPR) [4]	IAA recruited to the oligo complex (LC-MS after pull-down) ([2]; microglial cells, gut fecal supernatant, 6 h, biotinylated oligo)	memory and spatial learning (MWM) ([3]; aged mice, intravenous, twice a week for 2 months)
CC(C)CCN [IAA, isoamylamine]	higher amounts than CA	increased	induced	only IAA interacts with S100p1-G	reduced	induced	induced the memory and learning loss	–	–	–	–	–
S100p1-G: CTGTGGGCAG CTGGCCAAGC (SEQ ID NO: 8), S100A8 promoter −57 . . . −38 (DNA CTGTGGGCAGCTGGCCAAGC; chemistry not given here)	–	–	–	–	–	–	–	decline	prevented	targeted by IAA	recruited	recovered

From patent publication US20250136997A1, “COMPOSITIONS FOR SEQUESTERING ISOAMYL AMINE AND METHODS OF USE THEREFOR” (University of Louisville Research Foundation, Inc., priority 2023, published 2025)
